IC50 data for 32 compounds are collected here from patent US8178668B2, “2-aminopyridine kinase inhibitors” (OSI Pharmaceuticals, LLC, priority 2008, dated 2012).

One assay has as its target RON (human) (Homo sapiens, UniProt Q04912). Nature of the assay: RON kinase AlphaScreen assay (Km of ATP). The conditions noted are these: ATP at Km; at least duplicate experiments. It counts as biochemical. The procedure, abridged: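 Human RON phosphorylated biotinylated poly(Glu,Tyr) (200 ng/μL) at Km ATP in 50 mM HEPES pH 7.4, 12.5 mM MgCl2, 1% glycerol, 0.334 mM vanadate, 1% DMSO. Reaction ran 30 min at RT after enzyme addition. Product was detected by AlphaScreen with PT66 beads after 1 h.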

The target of a further assay is MET (human) (Homo sapiens, UniProt P08581). The assay is described as follows: MET kinase AlphaScreen assay (Km of ATP). The following applies: ATP at Km; at least duplicate experiments. It counts as biochemical. The essentials: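 Biotinylated poly(Glu,Tyr) (200 ng/μL) phosphorylated by MET with ATP at an enzyme-optimized level, in 50 mM HEPES pH 7.4 with Mg2+/Mn2+ and vanadate, 1% DMSO. Reaction runs 60 min at RT. PT66 AlphaScreen donor/acceptor beads are added and signal is read after 1 h.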
Sequence of MET (human) (P08581 25-1390): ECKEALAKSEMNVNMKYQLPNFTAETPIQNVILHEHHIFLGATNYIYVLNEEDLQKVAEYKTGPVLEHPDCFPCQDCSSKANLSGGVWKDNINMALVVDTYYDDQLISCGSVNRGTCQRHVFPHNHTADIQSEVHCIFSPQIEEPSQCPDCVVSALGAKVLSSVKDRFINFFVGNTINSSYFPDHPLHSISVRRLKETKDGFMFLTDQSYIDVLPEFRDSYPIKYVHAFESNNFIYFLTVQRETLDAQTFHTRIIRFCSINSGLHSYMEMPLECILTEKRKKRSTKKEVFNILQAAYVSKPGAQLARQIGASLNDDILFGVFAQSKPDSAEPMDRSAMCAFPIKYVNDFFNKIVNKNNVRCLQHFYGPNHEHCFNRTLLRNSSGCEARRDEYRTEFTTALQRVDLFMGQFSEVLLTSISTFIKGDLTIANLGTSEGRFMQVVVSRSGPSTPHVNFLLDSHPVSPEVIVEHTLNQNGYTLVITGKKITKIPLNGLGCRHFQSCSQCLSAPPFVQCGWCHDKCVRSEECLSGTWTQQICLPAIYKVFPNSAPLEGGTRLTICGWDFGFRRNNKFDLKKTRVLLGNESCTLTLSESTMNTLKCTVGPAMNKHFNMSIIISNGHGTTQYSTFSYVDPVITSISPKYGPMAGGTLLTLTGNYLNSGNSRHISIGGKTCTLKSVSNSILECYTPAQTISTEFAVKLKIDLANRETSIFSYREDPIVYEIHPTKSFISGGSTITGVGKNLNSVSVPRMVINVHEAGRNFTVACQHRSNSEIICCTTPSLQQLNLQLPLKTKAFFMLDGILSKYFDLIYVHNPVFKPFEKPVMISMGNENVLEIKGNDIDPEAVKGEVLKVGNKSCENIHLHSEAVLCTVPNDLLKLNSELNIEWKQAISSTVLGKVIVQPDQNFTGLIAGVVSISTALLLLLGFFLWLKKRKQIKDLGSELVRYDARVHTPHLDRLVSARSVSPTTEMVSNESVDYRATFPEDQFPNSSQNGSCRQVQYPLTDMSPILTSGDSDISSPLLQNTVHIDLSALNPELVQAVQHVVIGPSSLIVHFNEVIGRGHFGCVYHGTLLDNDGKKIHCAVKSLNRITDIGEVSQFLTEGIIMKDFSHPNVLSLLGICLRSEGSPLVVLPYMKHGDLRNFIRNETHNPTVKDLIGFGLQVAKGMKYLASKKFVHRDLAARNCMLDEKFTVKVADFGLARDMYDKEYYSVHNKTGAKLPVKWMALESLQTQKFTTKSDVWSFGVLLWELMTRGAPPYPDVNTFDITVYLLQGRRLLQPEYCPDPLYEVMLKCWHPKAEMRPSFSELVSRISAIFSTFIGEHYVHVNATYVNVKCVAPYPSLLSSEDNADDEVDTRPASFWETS

Sequence of RON (human) (Q04912 25-1400): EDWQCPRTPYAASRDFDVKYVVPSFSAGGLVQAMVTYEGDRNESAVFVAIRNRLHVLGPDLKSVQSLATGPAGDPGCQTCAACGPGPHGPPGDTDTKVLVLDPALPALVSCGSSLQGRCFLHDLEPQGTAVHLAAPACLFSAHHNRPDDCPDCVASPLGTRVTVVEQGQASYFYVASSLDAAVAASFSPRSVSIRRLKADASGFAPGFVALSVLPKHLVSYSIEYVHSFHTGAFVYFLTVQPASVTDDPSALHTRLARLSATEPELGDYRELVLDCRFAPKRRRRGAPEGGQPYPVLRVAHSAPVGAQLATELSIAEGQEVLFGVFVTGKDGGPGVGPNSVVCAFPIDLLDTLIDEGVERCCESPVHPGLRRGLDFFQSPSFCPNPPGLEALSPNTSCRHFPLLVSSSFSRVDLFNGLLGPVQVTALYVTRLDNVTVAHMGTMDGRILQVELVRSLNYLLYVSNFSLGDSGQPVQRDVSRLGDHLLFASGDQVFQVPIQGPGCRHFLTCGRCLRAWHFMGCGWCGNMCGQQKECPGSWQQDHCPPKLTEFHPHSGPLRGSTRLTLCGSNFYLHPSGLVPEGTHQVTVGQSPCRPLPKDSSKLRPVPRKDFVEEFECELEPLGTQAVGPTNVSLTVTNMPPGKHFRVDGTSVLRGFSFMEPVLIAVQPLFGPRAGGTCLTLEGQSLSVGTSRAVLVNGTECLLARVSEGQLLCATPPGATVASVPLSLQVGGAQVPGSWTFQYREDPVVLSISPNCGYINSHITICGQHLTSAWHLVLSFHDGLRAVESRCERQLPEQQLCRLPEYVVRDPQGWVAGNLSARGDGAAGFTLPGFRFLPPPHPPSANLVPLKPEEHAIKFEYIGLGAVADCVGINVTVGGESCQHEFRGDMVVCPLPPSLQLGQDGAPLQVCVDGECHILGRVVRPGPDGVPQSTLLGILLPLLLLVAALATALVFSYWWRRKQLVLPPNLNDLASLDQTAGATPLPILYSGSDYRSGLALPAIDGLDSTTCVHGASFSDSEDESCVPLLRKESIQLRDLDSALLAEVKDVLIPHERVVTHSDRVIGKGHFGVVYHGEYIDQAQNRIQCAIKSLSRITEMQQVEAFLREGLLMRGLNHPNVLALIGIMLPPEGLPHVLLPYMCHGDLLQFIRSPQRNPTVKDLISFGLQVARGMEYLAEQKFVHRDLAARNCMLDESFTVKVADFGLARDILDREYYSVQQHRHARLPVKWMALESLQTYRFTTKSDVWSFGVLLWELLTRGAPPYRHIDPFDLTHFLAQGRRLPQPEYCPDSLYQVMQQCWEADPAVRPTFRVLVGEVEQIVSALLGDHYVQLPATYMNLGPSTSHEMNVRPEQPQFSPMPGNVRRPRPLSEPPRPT

Turning to `CC(=O)N1CCN(C(=O)c2cccc(-c3cnc(N)c(-c4nc5ccccc5s4)c3)c2)CC1` [Example 212, 1-{4-[3-(6-Amino-5-benzothiazol-2-ylpyridin-3-yl)benzoyl]piperazin-1-yl}ethanone], the values for the IC50 against RON (human) and at MET (human) were over 20000 nM and 1000 to 20000 nM, respectively.

For the compound `Nc1ncc(-c2cccc(C(=O)N3CCCC(O)C3)c2)cc1-c1nc2ccccc2s1` (stereo not shown) [Example 213, [3-(6-Amino-5-benzothiazol-2-ylpyridin-3-yl)phenyl]-(3-hydroxypiperidin-1-yl)methanone], the IC50 against RON (human) and against MET (human) was 1000 to 20000 nM each time.

Consider `C[C@@H]1CN(C(=O)c2cccc(-c3cnc(N)c(-c4nc5ccccc5s4)c3)c2)C[C@H](C)O1` [Example 214, [3-(6-Amino-5-benzothiazol-2-ylpyridin-3-yl)phenyl]-(cis-2,6-dimethylmorpholin-4-yl)methanone], for which the IC50 at RON (human) was over 20000 nM; against MET (human), 1000 to 20000 nM.

Take `CN(C)C(=O)CN1CCN(C(=O)c2cccc(-c3cnc(N)c(-c4nc5ccccc5s4)c3)c2)CC1` [Example 215, 2-{4-[3-(6-Amino-5-benzothiazol-2-ylpyridin-3-yl)benzoyl]piperazin-1-yl}-N,N-dimethylacetamide]: the IC50 against RON (human) and at MET (human) was 1000 to 20000 nM in each case.

For `COCCN(CCOC)C(=O)c1cccc(-c2cnc(N)c(-c3nc4ccccc4s3)c2)c1` [Example 216, 3-(6-Amino-5-benzothiazol-2-ylpyridin-3-yl)-N,N-bis-(2-methoxyethyl)benzamide], the IC50 on RON (human) and against MET (human) was over 20000 nM in each case.

Take `Nc1ncc(-c2cccc(C(=O)N3CCC(N4CCCC4)CC3)c2)cc1-c1nc2ccccc2s1` [Example 217, [3-(6-Amino-5-benzothiazol-2-ylpyridin-3-yl)phenyl]-(4-pyrrolidin-1-ylpiperidin-1-yl)methanone]: the concentration for half-maximal inhibition (IC50) at RON (human) lay within 1000 to 20000 nM; against MET (human), 100 to 1000 nM.

For the compound `CN1CCC(NC(=O)c2cccc(-c3cnc(N)c(-c4nc5ccccc5s4)c3)c2)CC1` [Example 218, 3-(6-Amino-5-benzothiazol-2-ylpyridin-3-yl)-N-(1-methylpiperidin-4-yl)benzamide], the values for the IC50 against RON (human) and at MET (human) were 1000 to 20000 nM and 100 to 1000 nM, respectively.

Turning to `NC(=O)C1CCN(C(=O)c2cccc(-c3cnc(N)c(-c4nc5ccccc5s4)c3)c2)CC1` [Example 219, 1-[3-(6-Amino-5-benzothiazol-2-ylpyridin-3-yl)benzoyl]piperidine-4-carboxylic acid amide], the IC50 is over 20000 nM at RON (human) and 100 to 1000 nM on MET (human).

For the compound `CN(C)CCN(C)C(=O)c1cccc(-c2cnc(N)c(-c3nc4ccccc4s3)c2)c1` [Example 220, 3-(6-Amino-5-benzothiazol-2-ylpyridin-3-yl)-N-(2-dimethylaminoethyl)-N-methylbenzamide], the IC50 on RON (human) was 1000 to 20000 nM; on MET (human) it was 100 to 1000 nM.

As for `Nc1ncc(-c2cccc(C(=O)N[C@H]3CCCC[C@@H]3O)c2)cc1-c1nc2ccccc2s1` [Example 221, 3-(6-Amino-5-benzothiazol-2-ylpyridin-3-yl)-N-((1S,2S)-2-hydroxycyclohexyl)benzamide], the IC50 at RON (human) and against MET (human) was 1000 to 20000 nM in each case.

Consider `Nc1ncc(-c2cccc(C(=O)N3CCC(O)C3)c2)cc1-c1nc2ccccc2s1` (stereo not shown) [Example 222, [3-(6-Amino-5-benzothiazol-2-ylpyridin-3-yl)phenyl]-(3-hydroxypyrrolidin-1-yl)methanone], for which the IC50 against RON (human) and on MET (human) was 1000 to 20000 nM in each case.

Take `Nc1ncc(-c2cccc(C(=O)NCCCn3ccnc3)c2)cc1-c1nc2ccccc2s1` [Example 223, 3-(6-Amino-5-benzothiazol-2-ylpyridin-3-yl)-N-(3-imidazol-1-ylpropyl)benzamide]: the IC50 against RON (human) and against MET (human) was 1000 to 20000 nM throughout.

With `CN(C)C1CCN(C(=O)c2cccc(-c3cnc(N)c(-c4nc5ccccc5s4)c3)c2)C1` (stereo not shown) [Example 224, [3-(6-Amino-5-benzothiazol-2-ylpyridin-3-yl)phenyl]-(3-dimethylaminopyrrolidin-1-yl)methanone], the 50% inhibitory concentration (IC50) lay in the range of 1000 to 20000 nM on RON (human) and 100 to 1000 nM against MET (human).

With `Nc1ncc(-c2cccc(C(=O)NCCCN3CCOCC3)c2)cc1-c1nc2ccccc2s1` [Example 225, 3-(6-Amino-5-benzothiazol-2-ylpyridin-3-yl)-N-(3-morpholin-4-ylpropyl)benzamide], the IC50 against RON (human) and at MET (human) was 1000 to 20000 nM each time.

With `CN1CCCN(C(=O)c2cccc(-c3cnc(N)c(-c4nc5ccccc5s4)c3)c2)CC1` [Example 226, [3-(6-Amino-5-benzothiazol-2-ylpyridin-3-yl)phenyl]-(4-methyl-[1,4]diazepan-1-yl)methanone], the IC50 lay within 1000 to 20000 nM against RON (human) and 100 to 1000 nM against MET (human).

In the case of `Nc1ncc(-c2cccc(C(=O)N3CCC(F)(F)C3)c2)cc1-c1nc2ccccc2s1` [Example 227, [3-(6-Amino-5-benzothiazol-2-ylpyridin-3-yl)phenyl]-(3,3-difluoropyrrolidin-1-yl)methanone], the IC50 against RON (human) and against MET (human) was 1000 to 20000 nM throughout.

Take `C[C@@H]1CN(C(=O)c2cccc(-c3cnc(N)c(-c4nc5ccccc5s4)c3)c2)C[C@H](C)N1C` [Example 228, [3-(6-Amino-5-benzothiazol-2-ylpyridin-3-yl)phenyl]-(cis-3,4,5-trimethylpiperazin-1-yl)methanone]: the IC50 is 1000 to 20000 nM at RON (human) and 100 to 1000 nM against MET (human).

`Nc1ncc(-c2cc3ccccc3[nH]2)cc1-c1nc2ccccc2s1` [Example 229, 3-(1,3-Benzothiazol-2-yl)-5-(1H-indol-2-yl)pyridin-2-amine]: the IC50 at RON (human) and at MET (human) was 1000 to 20000 nM in each case.

As to `Nc1ncc(-c2ccc[nH]2)cc1-c1nc2ccccc2s1` [Example 230, 3-(1,3-Benzothiazol-2-yl)-5-(1H-pyrrol-2-yl)pyridin-2-amine], the IC50 against RON (human) and against MET (human) was 1000 to 20000 nM in each case.

Regarding `CS(=O)(=O)Nc1ccc(-c2cnc(N)c(-c3nc4ccccc4s3)c2)cc1` [Example 231, N-4-[6-Amino-5-(1,3-benzothiazol-2-yl)pyridin-3-yl]phenylmethanesulfonamide], the IC50 on RON (human) and at MET (human) was 1000 to 20000 nM each time.

As for `Nc1ncc(C2=CCNCC2)cc1-c1nc2ccccc2s1` [Example 232, 5-(1,3-Benzothiazol-2-yl)-1′,2′,3′,6′-tetrahydro-3,4′-bipyridin-6-amine], the IC50 against RON (human) lay in the range of 1000 to 20000 nM; on MET (human), 100 to 1000 nM.

Consider `Nc1ncc(-c2cccc(O)c2)cc1-c1nc2ccccc2s1` [Example 233, 3-[6-Amino-5-(1,3-benzothiazol-2-yl)pyridin-3-yl]phenol], for which the values for the IC50 against RON (human) and against MET (human) were over 20000 nM and 1000 to 20000 nM, respectively.

As to `COC(=O)COc1cccc(-c2cnc(N)c(-c3nc4ccccc4s3)c2)c1` [Example 234, Methyl 3-[6-amino-5-(1,3-benzothiazol-2-yl)pyridin-3-yl]phenoxyacetate], the 50% inhibitory concentration (IC50) against RON (human) is over 20000 nM; against MET (human), 1000 to 20000 nM.

`Nc1ncc(-c2cccc(OCC(=O)O)c2)cc1-c1nc2ccccc2s1` [Example 235, [3-(6-Amino-5-benzothiazol-2-yl-pyridin-3-yl)-phenoxy]acetic acid]: the 50% inhibitory concentration (IC50) on RON (human) and against MET (human) was 1000 to 20000 nM in each case.

`CCOC(=O)COc1ccc(-c2cnc(N)c(-c3nc4ccccc4s3)c2)cc1` [Example 236, Ethyl 4-[6-amino-5-(1,3-benzothiazol-2-yl)pyridin-3-yl]phenoxyacetate]: the IC50 against RON (human) and against MET (human) was 1000 to 20000 nM in each case.

`Nc1ncc(-c2ccc(OCC(=O)O)cc2)cc1-c1nc2ccccc2s1` [Example 237, 4-[6-Amino-5-(1,3-benzothiazol-2-yl)pyridin-3-yl]phenoxyacetic acid]: the 50% inhibitory concentration (IC50) at RON (human) was in the range of 1000 to 20000 nM; against MET (human), 100 to 1000 nM.

On to `CNC(=O)COc1ccc(-c2cnc(N)c(-c3nc4ccccc4s3)c2)cc1` [Example 238, 2-[4-(6-Amino-5-benzothiazol-2-ylpyridin-3-yl)-phenoxy]-N-methylacetamide], for which the IC50 against RON (human) and at MET (human) was 1000 to 20000 nM throughout.

As to `CN(C)C(=O)COc1ccc(-c2cnc(N)c(-c3nc4ccccc4s3)c2)cc1` [Example 239, 2-[4-(6-Amino-5-benzothiazol-2-ylpyridin-3-yl)-phenoxy]-N,N-dimethylacetamide], the half-inhibitory concentration (IC50) against RON (human) and at MET (human) was 1000 to 20000 nM in each case.

Regarding `Nc1ncc(-c2ccc(OCC(=O)NCc3ccccc3)cc2)cc1-c1nc2ccccc2s1` [Example 240, 2-[4-(6-Amino-5-benzothiazol-2-ylpyridin-3-yl)-phenoxy]-N-benzylacetamide], the IC50 at RON (human) and against MET (human) was 1000 to 20000 nM in each case.

Turning to `Nc1ncc(-c2ccc(OCC(=O)N3CCCC3)cc2)cc1-c1nc2ccccc2s1` [Example 241, 2-[4-(6-Amino-5-benzothiazol-2-ylpyridin-3-yl)phenoxy]-1-pyrrolidin-1-ylethanone], the figures for the IC50 on RON (human) and against MET (human) were over 20000 nM and 1000 to 20000 nM, respectively.

As to `Nc1ncc(-c2ccc(OCC(=O)NCCCN3CCCC3=O)cc2)cc1-c1nc2ccccc2s1` [Example 242, 2-[4-(6-Amino-5-benzothiazol-2-ylpyridin-3-yl)-phenoxy]-N-[3-(2-oxopyrrolidin-1-yl)-propyl]acetamide], the IC50 on RON (human) and on MET (human) was 1000 to 20000 nM in each case.

Turning to `Nc1ncc(-c2ccc(OCC(=O)NC3CCCCC3O)cc2)cc1-c1nc2ccccc2s1` (stereo not shown) [Example 243, 2-[4-(6-Amino-5-benzothiazol-2-ylpyridin-3-yl)phenoxy]-N-(2-hydroxycyclohexyl)acetamide], the figures for the IC50 at RON (human) and against MET (human) were over 20000 nM and 1000 to 20000 nM, respectively.
